According to patent publication US20030130272A1, “Anthracene derivatives as anti-cancer agents” (priority 1999, published 2003):

Assays:
MAC 15A cells = assay: In vitro activity against MAC 15A adenocarcinoma (MTT assay); type: cell-based; conditions: MAC15A colon adenocarcinoma, 96 hours continuous exposure
Experimental: MAC 15A cells were grown in RPMI 1640 medium supplemented with 10% foetal calf serum containing a 1% antibiotic mixture under standard tissue culture conditions and were maintained at 37° C. in a humidified atmosphere of 5% CO2 in air. Cells were harvested from a stock culture in exponential growth phase and plated in 96-well flat-bottomed plates to achieve a final density of 2×10^3 cells per well. After 2 hours incubation medium was replaced with either fresh medium containing 0.5% DMSO (control) or medium containing test compound dissolved in DMSO at a concentrations from 10 mM to 1 nM. Chemosensitivity was assessed using MTT assay by the method of Plumb et al Cancer Research 49 (1989) 4435-4440.
Following 96 hours continuous exposure to drug at 37° C. cells were incubated with fresh drug-free medium immediately prior to addition of MTT solution (5 mg/ml). Medium and MTT were removed after 4 hours and 150 μl of DMSO was added. For each plate the absorbance of the resulting solution was measured at the analytical wavelength 550 nm for formnazan product, using a Labsystem Mutiskan. IC50 values were obtained from growth curves of drug concentration against % survival and are expressed in μm.
In vitro Cytotoxicity of Spacer Limked Anthraquinone Peptide Conjugates on MAC15A Colon Adenocarcinoma

HL-60 Human Leukemia = assay: In vitro cytotoxicity against HL-60 human leukemia; type: cell-based
Excerpt: In vitro Cytotoxicity of Spacer-Linked Anthraquinone-Peptide Conjugates Against HL-60 Human Leukemia

topo I [1] = molecular target: T1, topo I (Homo sapiens, UniProt P11387); assay: Inhibition of topoisomerase I mediated relaxation of pBR322 DNA; type: biochemical
T1 sequence (P11387 1-765): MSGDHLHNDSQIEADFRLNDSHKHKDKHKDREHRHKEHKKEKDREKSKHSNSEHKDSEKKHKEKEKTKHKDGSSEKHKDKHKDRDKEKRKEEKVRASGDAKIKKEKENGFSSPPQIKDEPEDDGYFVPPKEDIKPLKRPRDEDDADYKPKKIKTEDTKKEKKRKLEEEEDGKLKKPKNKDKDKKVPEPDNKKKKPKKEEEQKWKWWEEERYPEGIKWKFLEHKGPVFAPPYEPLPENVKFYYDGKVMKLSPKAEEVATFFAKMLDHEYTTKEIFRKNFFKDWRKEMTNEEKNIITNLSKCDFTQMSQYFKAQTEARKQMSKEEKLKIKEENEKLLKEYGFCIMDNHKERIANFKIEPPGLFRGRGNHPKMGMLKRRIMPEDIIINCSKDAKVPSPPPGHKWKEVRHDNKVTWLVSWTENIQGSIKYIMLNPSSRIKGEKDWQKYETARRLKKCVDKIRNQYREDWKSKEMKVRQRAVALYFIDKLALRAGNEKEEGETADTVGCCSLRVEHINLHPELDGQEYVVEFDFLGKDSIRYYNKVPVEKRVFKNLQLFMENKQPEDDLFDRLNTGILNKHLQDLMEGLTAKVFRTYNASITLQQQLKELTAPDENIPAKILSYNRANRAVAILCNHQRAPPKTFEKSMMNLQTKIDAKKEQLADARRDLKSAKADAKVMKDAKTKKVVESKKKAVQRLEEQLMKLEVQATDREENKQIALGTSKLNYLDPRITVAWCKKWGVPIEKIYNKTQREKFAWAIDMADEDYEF

topo I [2] = molecular target: T1, topo I; assay: Stimulation of topoisomerase I mediated cleavage of pBR322 DNA; type: biochemical; conditions: for nicked plasmid DNA (topo I mediated cleavage): at 25 μM
Excerpt: To determine the effect of the newly synthesised compounds on the catalytic activity of topo I and II (α and β), specific tests measuring relaxation, decatenation and enzyme-mediated cleavage of DNA were employed using purified human topos.
Simulation of Topoisomerase I Mediated Cleavage of pBR322DNA by Spacer-Linked Anthraquinone-Peptide Conjugates

pBR322 DNA = assay: DNA binding assay: fluorescence quenching, displacement of ethidium bromide and Hoechst dye 33258; conditions: for QH50: concentration displacing 50% of Hoechst dye 33258 (groove binder) from DNA; for QE50: concentration displacing 50% of ethidium bromide (intercalator) from DNA
Excerpt: The present inventors have now determined that the introduction of appropriately positioned, conformationally restricted groups into the spacer group of spacer-linked anthraquinone-amino acid or peptide conjugates, allows control of the affinity and mode of binding to DNA. This affinity and mode of binding to DNA is readily determined by fluorescence quenching experiments in which the Q50 values for displacement of ethidium bromide, a DNA intercalator, and for Hoechst 33258 dye, a DNA minor-groove-binder, from which their fluorescent DNA-bound complexes are measured and expressed in μM units of drug concentration (see PCT/GB99/01901 incorporated herein by reference).
The propensity of selected compounds to bind to DNA in the absence of topos was measured in order to identify compounds that would bind weakly, or not at all. […] A […] was used determine binding constants of the compound to DNA by displacement of either ethidium bromide (an intercalator) or Hoechst dye 33258 (a groove binder) which form a DNA-bound fluorescent complex measured by fluorescence spectroscopy.
DNA Binding Assay Protocol
In order to detect the strength and mode of anthraquinone compound binding to DNA the displacement of known DNA binders was detected by measuring the fluorescence of a DNA/fluorescent compound complex. The addition of known concentrations of ethidium bromide, an interchelator, and Hoescht Dye, a groove binder, cause a fluorescent DNA/binder complex that can be detected and the fluorescence quantified. The addition of anthraquinone compounds displaces the interchelators or groove binders, depending on the compound mode of DNA binding, and therefore reduces the fluorescence accordingly. The preferred binding action of compounds can be quantified by determining the reduction in fluorescence resulting from a given concentration of compound. The quantification of a compounds ability to bind to DNA is expressed, as the concentration required to displace 50% of the ethidium bromide or Hocscht Dye, thus reducing the fluorescence by 50%. Therefore, the values produced are QE50 for ethidium, bromide, or QH50 for Hoescht Dye.
Compound: 300, 60, 10 and 10/6 µM (1.66 μM) solution concentrations were prepared for use in the assay to produce a range of compound. Concentrations. 100, 200 and 300 μl of each dilution were used in the assay reaction. This provides a range of concentrations: −30, 20, 10, 6, 4, 2, 1, 0.67, 0.33, 0.17, 0.11, 0.06, 0.00 μM in the assay environment. Intermediate concentrations can be utilised to enhance the accuracy of the displacement concentration determination.
Buffer: 100 mM Tris, NaCI 500 mM. […] Stock solution of 200 μM was prepared in 10× assay buffer. Dilution of DNA therefore provided the correct concentration of assay buffer in the assay cell. 300 μg DNA was used in 3 ml reaction mixture therefore 20 μM DNA concentration. Hoescht Dye 2 μM final concentration, therefore 100 μl of a 60 μM stock solution was added to a 3 ml assay. Ethidium Bromide 2 μM final concentration therefore 100 μl of a 60 μM stock solution was added to a 3 ml assay. Distilled H2O Water was added to produce 3 ml reaction volume. Order of addition: 1. DNA, 2. Water, 3. Drug, 4. Dye
The assay was completed with both Hoescht Dye and Ethidium. Bromide for each compound. The ethidium bromide is a DNA inter-chelator, Hoescht Dye is a minor groove binder. 100, 200 and 30 gμ of the lowest compound dilution was assayed. This procedure was repeated with all further dilution's. This provided a curve of fluorescence intensity decrease with increasing compound concentration. QE50 and QH50 values were determined by extrapolating the concentration of compound at the point where the fluorescence intensity was reduced by 50%. Controls involving compound only and ethidium. bromide or Hoechst Dye without compound were carried out for each experiment. […]

topo I [3] = molecular target: T1, topo I; assay: Immunoband depletion of topoisomerase I in HL-60 cells; type: cell-based; set-up: endogenous in cells; host or cells: HL-60 human leukemia cells
Experimental: Immunoband Depletion of Topoisomerase I
The data provides good evidence for ternary complex (drug-DNA-enzyme) formation in viable whole cells.
The method was adapted from Boege and Andersen [Selected novel flavones inhibit the DNA binding or the DNA religation step of cukaryotic topoisomerase I, F. Boege, T. Straub, A. Kehr, C. Boesenberg, K. Christiansen, A. Andersen, F. Jakob, J, Kohrle, J. Biol. Chem., 271, 2262, (1996)]; briefly, 10^6 HL-60 cells were cultivated for 1 h with and without drugs. Reactions were terminated by sedimentation of the cells (1000×g, 5 min, 4° C.) and subsequent lysis in PBS/NP40, RIPA buffer containing pepstatin and leupeptin. Samples were subjected to SDS-polyacrylamide (8%) gel electrophoresis and proteins that had entered the gel were electrophoretically transferred to nitro-cellulose sheets by the semi-dry method. Immunstaining of immobilised proteins was carried out using a polyclonal Ab of human topo I [topogen], and subsequently anti-human Ig biotinylated whole Ab (sheep)[Amersham], streptavidin horse-radish peroxidase and the ECL system [Amersham].

Molecule | IC50 (MAC 15A cells) [µM] | nicked plasmid DNA (topo I mediated cleavage) (topo I [2]) | QH50 (pBR322 DNA) [µM] | QE50 (pBR322 DNA) [µM] | melting point [°C] | also measured
C[C@H](N)C(=O)N1CCN(c2cccc3c2C(=O)c2ccccc2C3=O)CC1.O=C(O)C(F)(F)F [Example 17, 1-(1-L-alanylpiperazinyl)anthracene-9,10-dione trifluoroacetate salt] | 25 | 10% nicked plasmid DNA at 25 μM | – | – | – | IC50 (HL-60 Human Leukemia): 10.7 µM; DNA-topoisomerase activity: inhibition of topo I relaxation (topo I [1]; at 25 μM): COMPLETE inhibition at 25 μM
O=C(O)C(F)(F)F.O=C1c2ccccc2C(=O)c2c1cccc2N1CCNCC1 [Example 4b, 1-(1-piperazinyl)anthracene-9,10-dione trifluoroacetate salt] | – | – | 1.7 | 10.5 | 170 | –
O=C1c2ccccc2C(=O)c2c1cccc2N1CCNCC1 | – | – | – | – | 190 | –
1-(2-β-alanylpiperazinyl)anthracene-9,10-dione trifluoroacetate salt [Example 15] | 20 | – | 1.6 | 11.4 | – | –
O=C1c2c(O)ccc(O)c2C(=O)c2c(NCCNCCO)ccc(NCCNCCO)c21 [Mitoxantrone, reference compound] | – | – | 1.0 | 0.35 | – | –
Nc1ccc(Nc2cccc3c2C(=O)c2ccccc2C3=O)cc1 | – | – | – | – | 175 to 182 | –
CN(CCO)c1cccc2c1C(=O)c1c(cccc1N(C)CCO)C2=O | – | – | – | – | 168 to 178 | –
N[C@@H](Cc1ccccc1)C(=O)NC1CCC(Nc2cccc3c2C(=O)c2ccccc2C3=O)CC1.O=C(O)C(F)(F)F (stereo partly drawn) [Example 26, (2S)-2-amino-N-{4-[(9,10-dioxoanthryl)amino]cyclohexyl}-3-phenylpropanamide trifluoroacetate salt] | 3.5 | 45% nicked plasmid DNA at 25 μM | 2.3 | 6.5 | – | DNA-topoisomerase activity: inhibition of topo I relaxation (topo I [1]; between 25-100 μM): NO inhibition between 25-100 μM; intensity of the (100 kDa) topo I band (topo I [3]; 1 h with drug, in comparison with camptothecin): Reductions in the intensity of the (100 kDa) topo I band were observed; extent of immunoband depletion (topo I [3]; above 200 μM): comparable to the effect of camptothecin at 50 μM
(2R)-2-amino-N-{4-[(9,10-dioxoanthryl)amino]cyclohexyl}-3-phenylpropanamide trifluoroacetate salt [Example 28] | 8 | 20% nicked plasmid DNA at 25 μM | – | – | – | DNA-topoisomerase activity: inhibition of topo I relaxation (topo I [1]; at 50 μM): PARTIAL inhibition at 50 μM
N[C@@H](Cc1ccccc1)C(=O)N1CCN(c2cccc3c2C(=O)c2ccccc2C3=O)CC1.O=C(O)C(F)(F)F [Example 21, 1-(1-L-phenylalanylpiperazinyl)anthracene-9,10-dione trifluoroacetate salt] | – | – | – | – | – | DNA-topoisomerase activity: inhibition of topo I relaxation (topo I [1]; at 10 μM): COMPLETE inhibition at 10 μM; DNA-topoisomerase activity: topo I mediated cleavage (topo I [2]; between 10-100 μM): NO CLEAVAGE between 10-100 μM
